According to the supplement of paper PMC10307832:

Assays:
Assay in all cases: relative viability (nuclei count vs DMSO), 5 days (fraction); higher = more cells survive
NCI-H441 = system: NCI-H441
How it was run: (§1)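 Relative viability equals treated-well nuclei counts divided by vehicle-well nuclei counts. Counts came from 4× images of lung cancer cell lines grown in 1536-well plates for 5 days after pin-tool dosing on the day after seeding. Dosing used one drug alone or a fixed anchor-drug dose plus five library-drug doses (not always all listed) in √10 steps, and values are medians of duplicate plates.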

NCI-H1437 = system: NCI-H1437
How it was run: as §1

LOU-NH91 = system: LOU-NH91
How it was run: as §1

NCI-H661 = system: NCI-H661
How it was run: as §1

CAL-12T = system: CAL-12T
How it was run: as §1

NCI-H3122 = system: NCI-H3122
How it was run: as §1

COR-L 105 = system: COR-L 105
How it was run: as §1

NCI-H460 = system: NCI-H460
How it was run: as §1

NCI-H1666 = system: NCI-H1666
How it was run: as §1

LK-2 = system: LK-2
How it was run: as §1

BEN = system: BEN
How it was run: as §1

ABC-1 = system: ABC-1
How it was run: as §1

EKVX = system: EKVX
How it was run: as §1

NCI-H1650 = system: NCI-H1650
How it was run: as §1

NCI-H727 = system: NCI-H727
How it was run: as §1

PC-14 = system: PC-14
How it was run: as §1

NCI-H2170 = system: NCI-H2170
How it was run: as §1

NCI-H2009 = system: NCI-H2009
How it was run: as §1

201T = system: 201T
How it was run: as §1

HARA = system: HARA
How it was run: as §1

HCC-366 = system: HCC-366
How it was run: as §1

SMILES: COc1nc(C)cnc1NS(=O)(=O)c1cccnc1-c1ccc(-c2nnco2)cc1 [Zibotentan] + C[C@@H](Oc1cc(-c2cnn(C3CCNCC3)c2)cnc1N)c1c(Cl)ccc(F)c1Cl [Crizotinib] (partner 1 µM)
- relative viability (NCI-H441; first compound 0.08 µM): 0.772
- relative viability (NCI-H441; first compound 0.253 µM): 0.599
- relative viability (NCI-H441; first compound 0.8 µM): 0.982
- relative viability (NCI-H441; first compound 2.53 µM): 0.898
- relative viability (NCI-H1437; first compound 0.08 µM): 0.924
- relative viability (NCI-H1437; first compound 0.253 µM): 0.853
- relative viability (NCI-H1437; first compound 0.8 µM): 0.977
- relative viability (NCI-H1437; first compound 2.53 µM): 0.989
- relative viability (LOU-NH91; first compound 0.08 µM): 0.742
- relative viability (LOU-NH91; first compound 0.253 µM): 0.717
- relative viability (LOU-NH91; first compound 0.8 µM): 0.758
- relative viability (LOU-NH91; first compound 2.53 µM): 0.729
- relative viability (NCI-H661; first compound 0.08 µM): 0.971
- relative viability (NCI-H661; first compound 0.8 µM): 1.04
- relative viability (NCI-H661; first compound 2.53 µM): 0.853
- relative viability (CAL-12T; first compound 0.08 µM): 0.667
- relative viability (CAL-12T; first compound 0.253 µM): 0.553
- relative viability (CAL-12T; first compound 0.8 µM): 0.602
- relative viability (CAL-12T; first compound 2.53 µM): 0.712
- relative viability (NCI-H3122; first compound 0.08 µM): 0.259
- relative viability (NCI-H3122; first compound 0.253 µM): 0.234
- relative viability (NCI-H3122; first compound 0.8 µM): 0.269
- relative viability (NCI-H3122; first compound 2.53 µM): 0.282
- relative viability (COR-L 105; first compound 0.08 µM): 0.826
- relative viability (COR-L 105; first compound 0.253 µM): 0.665
- relative viability (COR-L 105; first compound 0.8 µM): 0.901
- relative viability (COR-L 105; first compound 2.53 µM): 1.07
- relative viability (NCI-H460; first compound 0.08 µM): 1.2
- relative viability (NCI-H460; first compound 0.8 µM): 1.01
- relative viability (NCI-H460; first compound 2.53 µM): 0.903
- relative viability (NCI-H1666; first compound 0.08 µM): 1.01
- relative viability (NCI-H1666; first compound 0.253 µM): 0.856
- relative viability (NCI-H1666; first compound 0.8 µM): 1.15
- relative viability (NCI-H1666; first compound 2.53 µM): 0.996
- relative viability (LK-2; first compound 0.08 µM): 0.259
- relative viability (LK-2; first compound 0.253 µM): 0.237
- relative viability (LK-2; first compound 0.8 µM): 0.253
- relative viability (LK-2; first compound 2.53 µM): 0.241
- relative viability (BEN; first compound 0.08 µM): 0.803
- relative viability (BEN; first compound 0.253 µM): 0.724
- relative viability (BEN; first compound 0.8 µM): 0.989
- relative viability (BEN; first compound 2.53 µM): 1.02
- relative viability (ABC-1; first compound 0.08 µM): 1.45
- relative viability (ABC-1; first compound 0.253 µM): 0.847
- relative viability (ABC-1; first compound 0.8 µM): 1.07
- relative viability (ABC-1; first compound 2.53 µM): 0.987
- relative viability (EKVX; first compound 0.08 µM): 0.875
- relative viability (EKVX; first compound 0.253 µM): 0.733
- relative viability (EKVX; first compound 0.8 µM): 0.848
- relative viability (EKVX; first compound 2.53 µM): 1.03
- relative viability (NCI-H1650; first compound 0.08 µM): 1.05
- relative viability (NCI-H1650; first compound 0.8 µM): 1.01
- relative viability (NCI-H1650; first compound 2.53 µM): 0.925
- relative viability (NCI-H727; first compound 0.08 µM): 0.985
- relative viability (NCI-H727; first compound 0.253 µM): 0.825
- relative viability (NCI-H727; first compound 0.8 µM): 0.806
- relative viability (NCI-H727; first compound 2.53 µM): 0.844
- relative viability (PC-14; first compound 0.08 µM): 0.907
- relative viability (PC-14; first compound 0.253 µM): 0.882
- relative viability (PC-14; first compound 0.8 µM): 0.968
- relative viability (PC-14; first compound 2.53 µM): 0.899
- relative viability (NCI-H2170; first compound 0.08 µM): 1.29
- relative viability (NCI-H2170; first compound 0.253 µM): 1.15
- relative viability (NCI-H2170; first compound 0.8 µM): 1.2
- relative viability (NCI-H2170; first compound 2.53 µM): 1.2
- relative viability (NCI-H2009; first compound 0.08 µM): 1.05
- relative viability (NCI-H2009; first compound 0.253 µM): 0.947
- relative viability (NCI-H2009; first compound 0.8 µM): 0.995
- relative viability (NCI-H2009; first compound 2.53 µM): 1.06
- relative viability (201T; first compound 0.08 µM): 1.03
- relative viability (201T; first compound 0.253 µM): 0.992
- relative viability (201T; first compound 0.8 µM): 1.04
- relative viability (201T; first compound 2.53 µM): 1.07
- relative viability (HARA; first compound 0.08 µM): 1.03
- relative viability (HARA; first compound 0.253 µM): 0.993
- relative viability (HARA; first compound 0.8 µM): 1.02
- relative viability (HARA; first compound 2.53 µM): 1.18
- relative viability (HCC-366; first compound 0.08 µM): 0.774
- relative viability (HCC-366; first compound 0.253 µM): 0.572
- relative viability (HCC-366; first compound 0.8 µM): 0.475
- relative viability (HCC-366; first compound 2.53 µM): 0.499
